Results from patent US4273771A, “Novel Δ^4,9 -gonadiene-21-ol-3,20-diones” (Roussel Uclaf, priority 1978, dated 1981).

How the values were obtained:
[1] = tested on: immature rabbits sensitized with estradiol; assay: Clauberg test: proliferation of endometric lace; assay type: in vivo, rabbit; settings: for MacPhail units: subcutaneous, 5 days
Experimental: The progestomimetic activity was also determined by the Clauberg test in which groups of 3 immature rabbits were previously sensitized by subcutaneous administration of estradiol for 5 days at a daily dose of 5 μg. Two days after the last treatment, the compound A of Example 1 in solution in sesame oil containing 5% of benzyl alcohol was subcutaneously administered daily for 5 days and the rabbits were killed on the 6th day. The uterus was removed and the proliferation of endometric lace which is characteristic of progestomimetic activity was determined in MacPhail units.

[2] = target: T1, specific progesterone receptors (uterine cytosol) (Oryctolagus cuniculus, UniProt P06186); assay: hormonal receptor method: displacement of tritiated Product R in rabbit uterine cytosol; assay type: binding; settings: for ARL (relative affinity of the test product): progesterone = 100
T1 construct: the uterus was removed and homogenized in a buffered solution; from tissue; host or cells: uterus cytosol (105,000 g supernatant) of immature estradiol-treated rabbits
T1 sequence (P06186 1-930): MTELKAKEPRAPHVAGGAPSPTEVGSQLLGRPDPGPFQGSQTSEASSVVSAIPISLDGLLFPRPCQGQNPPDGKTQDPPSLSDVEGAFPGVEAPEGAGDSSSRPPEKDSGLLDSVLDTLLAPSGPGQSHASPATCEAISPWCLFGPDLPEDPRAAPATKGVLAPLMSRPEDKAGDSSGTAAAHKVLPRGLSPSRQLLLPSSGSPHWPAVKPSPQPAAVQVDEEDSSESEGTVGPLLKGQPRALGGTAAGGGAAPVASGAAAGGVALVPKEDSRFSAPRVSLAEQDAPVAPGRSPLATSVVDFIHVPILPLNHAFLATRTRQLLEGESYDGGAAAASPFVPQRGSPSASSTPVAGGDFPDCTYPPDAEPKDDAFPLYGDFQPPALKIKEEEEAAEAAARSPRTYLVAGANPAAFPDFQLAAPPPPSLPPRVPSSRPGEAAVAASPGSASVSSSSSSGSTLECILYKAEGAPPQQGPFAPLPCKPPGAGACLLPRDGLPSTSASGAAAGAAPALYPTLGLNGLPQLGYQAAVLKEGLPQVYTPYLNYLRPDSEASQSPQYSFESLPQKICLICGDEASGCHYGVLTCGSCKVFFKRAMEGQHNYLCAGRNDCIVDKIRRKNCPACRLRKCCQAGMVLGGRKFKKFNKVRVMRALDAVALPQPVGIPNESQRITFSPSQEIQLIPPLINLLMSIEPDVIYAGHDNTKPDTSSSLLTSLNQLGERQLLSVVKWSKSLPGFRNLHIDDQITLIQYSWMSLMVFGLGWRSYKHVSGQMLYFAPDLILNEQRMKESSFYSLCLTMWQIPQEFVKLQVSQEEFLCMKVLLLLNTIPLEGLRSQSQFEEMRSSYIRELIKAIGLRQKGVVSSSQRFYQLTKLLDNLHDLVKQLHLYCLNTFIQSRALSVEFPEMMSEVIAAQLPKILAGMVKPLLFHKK
Experimental: The progestomimetic activity was determined for the product A of Example 1 by the hormonal receptor method of Raynaud et al [J. Ster. Biochem., Vol. 6 (1975), p. 615-622 and Physiology and Genetics of Reproduction, 1975, Part A, p. 143-160]. Immature rabbits received 25 μg of estradiol percutaneously and were sacrificed after 5 days and the uterus was removed and homogenized in a buffered solution of 10 mM of tromethamine, 0.25 M of saccharose and a pH of 7.4 was kept with hydrochloric acid. The homogenate was centrifuged at 105,000 g per hour and the surnageant or cytosol was adjusted to a solution of 1/50 (weight/volume). […] The radioactivity of the tritiated product R was determined after 2 hours and after 24 hours by the technique of adsorption on carbondextran (1.25%-0.625%). The plots were the curves of the right parallel of the axis of abscisses of ordinate [formula] wherein Bo is the maximum amount of tied tritiated product R measured in the incubation containing only tritiated product R and Bmin is the minimum amount of tied tritiated product R (non-specific) measured in the incubation containing tritiated product R and a large excess of cold product R (2500×10^-9 M) and the curves representing the percentages of tied tritiated product R B/Bo as a logarithmatic function of the concentrations of added cold product R.
The intersections of these I50 straight lines and the curves permit the determination of the values: CP--concentration of cold progesterone which inhibits by 50% the fixation of the tritiated product R and CX--concentration of test product which inhibits by 50% the fixation of tritiated product R. The relative affinity of the test product (ARL) was determined by the formula [formula] and the results are reported in Table I

immature female mice = assay: antiestrogenic activity, uterus weight (method of Rubin and Dorfman et al); assay type: in vivo
Experimental: The estrogenic activity of the product A of Example 1 was also determined by the method of Rubin [Endocrinology, Vol. 49 (1951), p. 429] and Dorfman et al [Methods in Hormone Research, Vol. II (1962), p. 118] in which groups of 4 immature female mice 18 days old received once a day for 3 days a subcutaneous injection of estradiol only, only the test product or estradiol and the test product. In the last case, separate injections were used. The animals were killed on the 4th day and the uterus was removed, dissected and weighed. The test product was administered in a volume of 0.1 ml of sesame oil solution containing 5% of benzyl alcohol at a total dose of 0.27 μg of estradiol and the test compound was used at total doses of 0.3, 1.0, 3 and 10 μg.

[3] = total dose 0.3 μg + estradiol 0.27 μg
[4] = total dose 1 μg + estradiol 0.27 μg
[5] = total dose 3 μg + estradiol 0.27 μg
[6] = total dose 10 μg + estradiol 0.27 μg

CC(O)C(=O)C1(C)CCC2C3CCC4=CC(=O)CCC4=C3CCC21C (single isomer, unassigned) [Product A of Example 1, 17α-methyl-17β-(2-hydroxy-1-oxopropyl)-Δ^4,9-estradiene-3-one]
MacPhail units ([1]; 1 μg daily): 2.2 MacPhail units | MacPhail units ([1]; 3 μg daily): 3.4 MacPhail units | MacPhail units ([1]; 10 μg daily): 3.4 MacPhail units | progestomimetic activity ([1]; result in words): very strong progestomimetic activity | ARL (relative affinity of the test product) ([2]; 2 h incubation at 0° C.): 204 | ARL (relative affinity of the test product) ([2]; 24 h incubation at 0° C.): 688 | affinity for specific uterine reception of progesterone compared with progesterone ([2]; result in words): much greater affinity | antiestrogenic activity against estradiol (immature female mice; dose of 1 μg, result in words): clear antiestrogenic activity | Average Weight of uterus (immature female mice; test product only, total dose 0.3 μg): 14.6 mg | Average Weight of uterus (immature female mice; test product only, total dose 1 μg): 13.0 mg | Average Weight of uterus (immature female mice; test product only, total dose 3 μg): 17.1 mg | Average Weight of uterus (immature female mice; test product only, total dose 10 μg): 15.8 mg | Average Weight of uterus (immature female mice; [3]): 80.5 mg | change of average uterus weight versus estradiol only (immature female mice; [3]): -19% | Average Weight of uterus (immature female mice; [4]): 59.6 mg | change of average uterus weight versus estradiol only (immature female mice; [4]): -39% | Average Weight of uterus (immature female mice; [5]): 38.5 mg | change of average uterus weight versus estradiol only (immature female mice; [5]): -61% | Average Weight of uterus (immature female mice; [6]): 39.6 mg | change of average uterus weight versus estradiol only (immature female mice; [6]): -60%

C[C@]12CC[C@@H]3c4ccc(O)cc4CC[C@H]3[C@@H]1CC[C@@H]2O [Estradiol, reference compound]
Average Weight of uterus (immature female mice; estradiol only, total dose 0.27 μg, subcutaneous, 3 days): 99.3 mg
